In ChEMBL document CHEMBL1130752, “Quaternary substituted PDE IV inhibitors II: the synthesis and in vitro evaluation of a novel series of gamma-lactams” (Bioorg Med Chem Lett, 1998):

Tests used:
Phosphodiesterase 4 [1] = biological target: T1, Phosphodiesterase 4 (Homo sapiens, UniProt P27815+Q08499+Q07343+Q08493); experiment: In vitro inhibition of phosphodiesterase (PDE IV) from guinea pig macrophages.; assay type: protein assay, Cavia porcellus; conditions: target entry is the homologue from another species
Phosphodiesterase 4 [2] = biological target: T1, Phosphodiesterase 4; experiment: Affinity for phosphodiesterase (PDE IV) in guinea pig brain membrane using [3H]rolipram displacement.; assay type: cell membranes, Cavia porcellus; conditions: target entry is the homologue from another species

| SMILES | IC50 (Phosphodiesterase 4 [1]) [µM] | Ki (Phosphodiesterase 4 [2]) [µM] |
| --- | --- | --- |
| COc1ccc(C2(Cc3ccncc3)CCNC2=O)cc1OC1CCCC1 (stereo unspecified) | 0.8 | 0.21 |
| COc1ccc(C2(Cc3ccccc3)CCN(C(=O)OC(C)(C)C)C2=O)cc1OC1CCCC1 (stereo unspecified) | 0.22 | 2.996 |
| COc1ccc(C2(Cc3ccccc3)CCNC2=O)cc1OC1CCCC1 (stereo unspecified) | 1 | 0.787 |
| COc1ccc(C2(Cc3ccncc3)CCN(Cc3cccc4ccccc34)C2=O)cc1OC1CCCC1 (stereo unspecified) | 0.293 | 0.822 |
| CCOC(=O)N1CCC(Cc2ccncc2)(c2ccc(OC)c(OC3CCCC3)c2)C1=O (stereo unspecified) | 0.137 | 0.139 |
| COc1ccc(C2(Cc3ccncc3)CCN(Cc3ccncc3)C2=O)cc1OC1CCCC1 (stereo unspecified) | 0.401 | 0.443 |
| COc1ccc(C2(Cc3ccncc3)CCN(CCC(C)C)C2=O)cc1OC1CCCC1 (stereo unspecified) | 0.081 | 0.08 |
| COc1ccc(C2(Cc3cc[n+]([O-])cc3)CCNC2=O)cc1OC1CCCC1 (stereo unspecified) | 1.6 | 2.247 |
| COc1ccc(C2(Cc3ccncc3)CCN(C(=O)OC(C)(C)C)C2)cc1OC1CCCC1 (stereo unspecified) | 0.807 | 0.47 |
| COc1ccc(C2(Cc3ccncc3)CCN(C(=O)OC(C)(C)C)C2=O)cc1OC1CCCC1 (stereo unspecified) | 0.0063 | 0.0075 |
| COc1ccc(C2CCN(C(=O)OC(C)(C)C)C2=O)cc1OC1CCCC1 (stereo unspecified) | 0.7 | 0.337 |
| COc1ccc(C2(Cc3ccncc3)CCN(S(=O)(=O)c3ccc(C)cc3)C2=O)cc1OC1CCCC1 (stereo unspecified) | 0.061 | 0.217 |
| CCCCN1CCC(Cc2ccncc2)(c2ccc(OC)c(OC3CCCC3)c2)C1=O (stereo unspecified) | 0.123 | 0.137 |
| COc1ccc(C2(Cc3ccncc3)CCN(Cc3ccc4ccccc4c3)C2=O)cc1OC1CCCC1 (stereo unspecified) | 0.017 | 0.0043 |
| COc1ccc(C2(Cc3ccncc3)CCN(Cc3ccccc3)C2=O)cc1OC1CCCC1 (stereo unspecified) | 0.056 | 0.051 |
| COc1ccc(C2(Cc3ccncc3)CCN(CC3CCCCC3)C2=O)cc1OC1CCCC1 (stereo unspecified) | 0.048 | 0.043 |
| COc1ccc(C2(Cc3cc[n+]([O-])cc3)CCN(C(=O)OC(C)(C)C)C2=O)cc1OC1CCCC1 (stereo unspecified) | 0.059 | 0.217 |
| COc1ccc(C2(Cc3ccncc3)CCN(C(=O)N(C)C)C2=O)cc1OC1CCCC1 (stereo unspecified) | 0.319 | 0.274 |
| COc1ccc(C2CCNC2=O)cc1OC1CCCC1 (stereo unspecified) | 5 | > 3.745 |
| COc1ccc(C2(CC#N)CCN(C(=O)OC(C)(C)C)C2=O)cc1OC1CCCC1 (stereo unspecified) | 0.082 | 0.476 |
| COc1ccc(C2(Cc3ccncc3)CCN(C(C)=O)C2=O)cc1OC1CCCC1 (stereo unspecified) | 0.461 | 0.367 |
| COc1ccc(C2(Cc3ccncc3)CCN(C(=O)OC(C)C)C2=O)cc1OC1CCCC1 (stereo unspecified) | 0.044 | 0.113 |
| COC(=O)N1CCC(Cc2ccncc2)(c2ccc(OC)c(OC3CCCC3)c2)C1=O (stereo unspecified) | 0.293 | 0.822 |
